Results reported in ChEMBL document CHEMBL1212782, “Mutasynthesis of lincomycin derivatives with activity against drug-resistant staphylococci” (2010).
≈ marks a conversion by molar mass, not a printed value.

Columns and labels:
[1] = system: Staphylococcus aureus; experiment: Antimicrobial activity against Staphylococcus aureus ATCC 29213 incubated at 37 degC for 24 hrs by agar dilution method; conditions: ATCC 29213, 24 h
[2] = system: Staphylococcus aureus; experiment: Antimicrobial activity against Staphylococcus aureus isolate CIP 107907 harboring vgaA gene incubated at 37 degC for 24 hrs by agar dilution method; conditions: isolate CIP 107907, 24 h
[3] = system: Staphylococcus epidermidis; experiment: Antimicrobial activity against lincomycin resistant Staphylococcus epidermidis isolate 102OL harboring lnuA gene incubated at 37 degC for 24 hrs by agar dilution method
[4] = system: Staphylococcus haemolyticus; experiment: Antimicrobial activity against lincomycin resistant Staphylococcus haemolyticus isolate 123PL harboring lnuA gene incubated at 37 degC for 24 hrs by agar dilution method
[5] = system: Staphylococcus epidermidis; experiment: Antimicrobial activity against erythromycin resistant Staphylococcus epidermidis isolate 129OV harboring msrA gene incubated at 37 degC for 24 hrs by agar dilution method
[6] = system: Staphylococcus haemolyticus; experiment: Antimicrobial activity against erythromycin resistant Staphylococcus haemolyticus isolate 202BB harboring msrA gene incubated at 37 degC for 24 hrs by agar dilution method
[7] = system: Staphylococcus haemolyticus; experiment: Antimicrobial activity against lincomycin, clindamycin resistant Staphylococcus haemolyticus isolate 29OL harboring vgaALC gene incubated at 37 degC for 24 hrs by agar dilution method
[8] = system: Staphylococcus haemolyticus; experiment: Antimicrobial activity against erythromycin, lincomycin resistant Staphylococcus haemolyticus isolate 113OL harboring msrA lnuA gene incubated at 37 degC for 24 hrs by agar dilution method
[9] = system: Staphylococcus epidermidis; experiment: Antimicrobial activity against erythromycin, lincomycin, clindamycin resistant Staphylococcus epidermidis isolate 44KR harboring ermC gene incubated at 37 degC for 24 hrs by agar dilution method
[10] = system: Staphylococcus haemolyticus; experiment: Antimicrobial activity against erythromycin, lincomycin, clindamycin resistant Staphylococcus haemolyticus isolate 134PL harboring ermC gene incubated at 37 degC for 24 hrs by agar dilution method
[11] = system: Staphylococcus haemolyticus; experiment: Antimicrobial activity against erythromycin, lincomycin, clindamycin resistant Staphylococcus haemolyticus isolate 65OL harboring ermC vgaALC gene incubated at 37 degC for 24 hrs by agar dilution method
[12] = system: Staphylococcus epidermidis; experiment: Antimicrobial activity against erythromycin, lincomycin, clindamycin resistant Staphylococcus epidermidis isolate 1036UL harboring ermC vgaALC gene incubated at 37 degC for 24 hrs by agar dilution method
[13] = system: Staphylococcus epidermidis; experiment: Antimicrobial activity against erythromycin, lincomycin, clindamycin resistant Staphylococcus epidermidis isolate 32OL harboring msrA lnuA vgaALC gene incubated at 37 degC for 24 hrs by agar dilution method
[14] = system: Staphylococcus epidermidis; experiment: Antimicrobial activity against erythromycin, inducible lincomycin, inducible clindamycin resistant Staphylococcus epidermidis isolate 32PL harboring ermC gene incubated at 37 degC for 24 hrs by agar dilution method
[15] = system: Staphylococcus haemolyticus; experiment: Antimicrobial activity against erythromycin, inducible lincomycin, inducible clindamycin resistant Staphylococcus haemolyticus isolate 31UL harboring ermC gene incubated at 37 degC for 24 hrs by agar dilution method

| Compound | MIC [1] [µg/mL] | MIC [2] [µg/mL] | MIC [3] [µg/mL] | MIC [4] [µg/mL] | MIC [5] [µg/mL] | MIC [6] [µg/mL] | MIC [7] [µg/mL] | MIC [8] [µg/mL] | MIC [9] [µg/mL] | MIC [10] [µg/mL] | MIC [11] [µg/mL] | MIC [12] [µg/mL] | MIC [13] [µg/mL] | MIC [14] [µg/mL] | MIC [15] [µg/mL] |
| --- | --- | --- | --- | --- | --- | --- | --- | --- | --- | --- | --- | --- | --- | --- | --- |
| CCCCC[C@@H]1C[C@@H](C(=O)N[C@@H]([C@H]2O[C@H](SC)[C@H](O)[C@@H](O)[C@H]2O)[C@@H](C)O)N(C)C1 | 0.25 (≈ 0.575 µM) | 0.5 (≈ 1.15 µM) | 2 (≈ 4.6 µM) | 8 (≈ 18.4 µM) | 0.25 (≈ 0.575 µM) | 0.25 (≈ 0.575 µM) | 32 (≈ 73.6 µM) | 8 (≈ 18.4 µM) | 64 (≈ 147 µM) | 32 (≈ 73.6 µM) | 128 (≈ 295 µM) | 64 (≈ 147 µM) | 64 (≈ 147 µM) | 0.25 (≈ 0.575 µM) | 0.5 (≈ 1.15 µM) |
| CCC[C@@H]1C[C@@H](C(=O)N[C@@H]([C@H]2O[C@H](SC)[C@H](O)[C@@H](O)[C@H]2O)[C@H](C)Cl)N(C)C1 [CLINDAMYCIN] | 0.125 (≈ 0.294 µM) | 0.25 (≈ 0.588 µM) | 1 (≈ 2.35 µM) | 2 (≈ 4.71 µM) | 0.25 (≈ 0.588 µM) | 0.125 (≈ 0.294 µM) | 16 (≈ 37.6 µM) | 1 (≈ 2.35 µM) | > 16 | > 16 | 4 (≈ 9.41 µM) | > 16 | 16 (≈ 37.6 µM) | 0.125 (≈ 0.294 µM) | 0.5 (≈ 1.18 µM) |
| CCC[C@@H]1C[C@@H](C(=O)N[C@@H]([C@H]2O[C@H](SC)[C@H](O)[C@@H](O)[C@H]2O)[C@@H](C)O)N(C)C1 [LINCOMYCIN] | 1 (≈ 2.46 µM) | 4 (≈ 9.84 µM) | 64 (≈ 157 µM) | 128 (≈ 315 µM) | 1 (≈ 2.46 µM) | 1 (≈ 2.46 µM) | 64 (≈ 157 µM) | 128 (≈ 315 µM) | 64 (≈ 157 µM) | 32 (≈ 78.7 µM) | 128 (≈ 315 µM) | > 256 | > 256 | 1 (≈ 2.46 µM) | 1 (≈ 2.46 µM) |
